The target in this assay is PLK1 (Homo sapiens, UniProt P53350). Nature of the assay: PLK1 Inhibition Assay I (radioactive-phosphate incorporation). Conditions: Ki(app); PLK1 Inhibition Assay I or II (table does not say which). In kind it is biochemical. An outline of the steps:
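Ki(app) values came from non-linear regression of initial rates after background subtraction, with phosphopeptide measured by phosphocellulose filter binding and scintillation counting. PLK1 at 2 nM was preincubated with compound (typically from 10 μM, 2-fold dilutions) for 10 min, then run 240 min at 25° C with 350 μM [γ-33P]ATP and 450 μM peptide substrate in HEPES pH 7.5 buffer.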

pKi: −log10 of the molar value. A value given as a limit tells only on which side of the number the result lay.

The results in this text go back to US8530489B2 (Vertex Pharmaceuticals Incorporated, priority 2006, dated 2013).

As a reminder, the pKi is the Ki on a negative log10 scale, so that one unit is a factor of ten.

Chain of PLK1 (P53350 whole entry): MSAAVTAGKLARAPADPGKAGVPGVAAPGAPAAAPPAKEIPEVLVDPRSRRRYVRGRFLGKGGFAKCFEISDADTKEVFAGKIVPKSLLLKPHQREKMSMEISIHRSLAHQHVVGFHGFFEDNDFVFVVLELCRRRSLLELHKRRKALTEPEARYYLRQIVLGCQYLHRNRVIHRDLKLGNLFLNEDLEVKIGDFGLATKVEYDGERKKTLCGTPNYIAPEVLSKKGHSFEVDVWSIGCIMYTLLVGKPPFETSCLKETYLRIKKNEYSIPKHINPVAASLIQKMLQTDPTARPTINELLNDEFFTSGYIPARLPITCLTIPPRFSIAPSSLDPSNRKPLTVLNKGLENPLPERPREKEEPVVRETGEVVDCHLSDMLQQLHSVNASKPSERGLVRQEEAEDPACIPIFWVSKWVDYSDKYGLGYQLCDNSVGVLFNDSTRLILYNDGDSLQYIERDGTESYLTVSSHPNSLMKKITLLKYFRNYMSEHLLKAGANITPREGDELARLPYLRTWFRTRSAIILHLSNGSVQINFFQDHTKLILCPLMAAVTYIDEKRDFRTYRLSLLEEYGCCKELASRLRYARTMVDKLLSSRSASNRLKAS

Take `CC(=O)Nc1ccc(C(C)Nc2ncc(C#N)c(-c3c[nH]c4ncc(C(F)(F)F)cc34)n2)cc1` (stereo not drawn) [Compound I-121, N-(4-(1-(5-cyano-4-(5-(trifluoromethyl)-1H-pyrrolo[2,3-b]pyridin-3-yl)pyrimidin-2-ylamino)ethyl)phenyl)acetamide]: the negative logarithm of the Ki (pKi) is above 8.52.
Consider `CC(Nc1ncc(C#N)c(-c2c[nH]c3ncc(C(F)(F)F)cc23)n1)c1ccc(O)c(Cl)c1` (stereo not drawn) [Compound I-122, 2-(1-(3-chloro-4-hydroxyphenyl)ethylamino)-4-(5-(trifluoromethyl)-1H-pyrrolo[2,3-b]pyridin-3-yl)pyrimidine-5-carbonitrile], for which the pKi was above 8.52.
To `CC(Nc1ncc(C#N)c(-c2c[nH]c3ncc(C(F)(F)F)cc23)n1)c1ccc(N2CCN(C(=O)OC(C)(C)C)CC2)cc1` (stereo not drawn) [Compound I-123, tert-butyl 4-(4-(1-(5-cyano-4-(5-(trifluoromethyl)-1H-pyrrolo[2,3-b]pyridin-3-yl)pyrimidin-2-ylamino)ethyl)phenyl)piperazine-1-carboxylate] belongs 7.40 to 8.52; to `CC(Nc1ncc(C#N)c(-c2c[nH]c3ncc(C(F)(F)F)cc23)n1)c1ccc(N2CCOCC2)cc1` (stereo not drawn) [Compound I-125, 2-(1-(4-morpholinophenyl)ethylamino)-4-(5-(trifluoromethyl)-1H-pyrrolo[2,3-b]pyridin-3-yl)pyrimidine-5-carbonitrile], above 8.52.
On to `CC(C)[C@H](CN1CCOCC1)Nc1ncc(C#N)c(-c2c[nH]c3ncc(C(F)(F)F)cc23)n1` [Compound I-128, 2-((R)-3-methyl-1-morpholinobutan-2-ylamino)-4-(5-(trifluoromethyl)-1H-pyrrolo[2,3-b]pyridin-3-yl)pyrimidine-5-carbonitrile], for which the pKi was 7.40 to 8.52.
With `C[C@@H](Nc1ncc(C#N)c(-c2c[nH]c3ncc(C(F)(F)F)cc23)n1)c1ccc(N2CCN(Cc3ccccc3)CC2)cc1` [Compound I-130, 2-((R)-1-(4-(4-benzylpiperazin-1-yl)phenyl)ethylamino)-4-(5-(trifluoromethyl)-1H-pyrrolo[2,3-b]pyridin-3-yl)pyrimidine-5-carbonitrile] the figure was above 8.52; with `C[C@H](CN1CCOCC1)Nc1ncc(C#N)c(-c2c[nH]c3ncc(C(F)(F)F)cc23)n1` [Compound I-132, 2-((R)-1-morpholinopropan-2-ylamino)-4-(5-(trifluoromethyl)-1H-pyrrolo[2,3-b]pyridin-3-yl)pyrimidine-5-carbonitrile], 7.40 to 8.52.
Regarding `C[C@@H](Nc1ncc(C#N)c(-c2c[nH]c3ncc(C(F)(F)F)cc23)n1)c1ccc(N(C)C)cc1` [Compound I-133, 2-((R)-1-(4-(dimethylamino)phenyl)ethylamino)-4-(5-(trifluoromethyl)-1H-pyrrolo[2,3-b]pyridin-3-yl)pyrimidine-5-carbonitrile], the pKi was above 8.52.
With `CC(=O)N1CCC([C@@H](C)Nc2ncc(C#N)c(-c3c[nH]c4ncc(C(F)(F)F)cc34)n2)CC1` [Compound I-134, 2-((R)-1-(1-acetylpiperidin-4-yl)ethylamino)-4-(5-(trifluoromethyl)-1H-pyrrolo[2,3-b]pyridin-3-yl)pyrimidine-5-carbonitrile] the figure was above 8.52; with `CC(=O)N1CCC([C@H](C)Nc2ncc(C#N)c(-c3c[nH]c4ncc(C(F)(F)F)cc34)n2)CC1` [Compound I-135, 2-((S)-1-(1-acetylpiperidin-4-yl)ethylamino)-4-(5-(trifluoromethyl)-1H-pyrrolo[2,3-b]pyridin-3-yl)pyrimidine-5-carbonitrile], 7.40 to 8.52; with `C[C@@H](Nc1ncc(C#N)c(-c2c[nH]c3ncc(C(F)(F)F)cc23)n1)c1ccc(NS(C)(=O)=O)cc1` [Compound I-136, N-(4-((1R)-1-(5-cyano-4-(5-(trifluoromethyl)-1H-pyrrolo[2,3-b]pyridin-3-yl)pyrimidin-2-ylamino)ethyl)phenyl)methanesulfonamide], above 8.52.
Consider `C[C@@H](Nc1ncc(C#N)c(-c2c[nH]c3ncc(C(F)(F)F)cc23)n1)c1ccc(NC(=O)C2CC2)cc1` [Compound I-137, N-(4-((1R)-1-(5-cyano-4-(5-(trifluoromethyl)-1H-pyrrolo[2,3-b]pyridin-3-yl)pyrimidin-2-ylamino)ethyl)phenyl)cyclopropanecarboxamide], for which the pKi is above 8.52.
For `CC(Nc1ncc(C#N)c(-c2c[nH]c3ncc(C(F)(F)F)cc23)n1)c1ccc(N2CCOCC2)nc1` (stereo not drawn) [Compound I-138, 2-(1-(6-morpholinopyridin-3-yl)ethylamino)-4-(5-(trifluoromethyl)-1H-pyrrolo[2,3-b]pyridin-3-yl)pyrimidine-5-carbonitrile], the negative-log Ki (pKi) is above 8.52.
As to `CC(C)N1CCN(c2ccc([C@@H](C)Nc3ncc(C#N)c(-c4c[nH]c5ncc(C(F)(F)F)cc45)n3)cc2)CC1` [Compound I-140, 2-((R)-1-(4-(4-isopropylpiperazin-1-yl)phenyl)ethylamino)-4-(5-(trifluoromethyl)-1H-pyrrolo[2,3-b]pyridin-3-yl)pyrimidine-5-carbonitrile], the negative-log Ki (pKi) was above 8.52.
With `COC(=O)Nc1ccc([C@@H](C)Nc2ncc(C#N)c(-c3c[nH]c4ncc(C(F)(F)F)cc34)n2)cc1` [Compound I-141, methyl 4-((1R)-1-(5-cyano-4-(5-(trifluoromethyl)-1H-pyrrolo[2,3-b]pyridin-3-yl)pyrimidin-2-ylamino)ethyl)phenylcarbamate] the figure was above 8.52; with `CC(Nc1ncc(C#N)c(-c2c[nH]c3ncc(C(F)(F)F)cc23)n1)c1ccc(N(C)C)nc1` (stereo not drawn) [Compound I-143, 2-(1-(6-(dimethylamino)pyridin-3-yl)ethylamino)-4-(5-(trifluoromethyl)-1H-pyrrolo[2,3-b]pyridin-3-yl)pyrimidine-5-carbonitrile], above 8.52.
With `CCC(=O)Nc1ccc([C@@H](C)Nc2ncc(C#N)c(-c3c[nH]c4ncc(C(F)(F)F)cc34)n2)cc1` [Compound I-144, N-(4-((1R)-1-(5-cyano-4-(5-(trifluoromethyl)-1H-pyrrolo[2,3-b]pyridin-3-yl)pyrimidin-2-ylamino)ethyl)phenyl)propionamide] the figure was above 8.52; with `C[C@@H](Nc1ncc(C#N)c(-c2c[nH]c3ncc(C(F)(F)F)cc23)n1)c1ccc(N2CCCC2=O)cc1` [Compound I-145, 2-((R)-1-(4-(2-oxopyrrolidin-1-yl)phenyl)ethylamino)-4-(5-(trifluoromethyl)-1H-pyrrolo[2,3-b]pyridin-3-yl)pyrimidine-5-carbonitrile], above 8.52; with `C[C@@H](Nc1ncc(C#N)c(-c2c[nH]c3ncc(C(F)(F)F)cc23)n1)c1ccc(O[C@H]2CCN(C)C2)cc1` [Compound I-146, 2-((R)-1-(4-((S)-1-methylpyrrolidin-3-yloxy)phenyl)ethylamino)-4-(5-(trifluoromethyl)-1H-pyrrolo[2,3-b]pyridin-3-yl)pyrimidine-5-carbonitrile], above 8.52.
With `CC(Nc1ncc(C#N)c(-c2c[nH]c3ncc(C(F)(F)F)cc23)n1)C1CCN(S(C)(=O)=O)CC1` (stereo not drawn) [Compound I-150, 2-(1-(1-(methylsulfonyl)piperidin-4-yl)ethylamino)-4-(5-(trifluoromethyl)-1H-pyrrolo[2,3-b]pyridin-3-yl)pyrimidine-5-carbonitrile] the figure was above 8.52.
As for `CNc1ccc(C(C)Nc2ncc(C#N)c(-c3c[nH]c4ncc(C(F)(F)F)cc34)n2)cn1` (stereo not drawn) [Compound I-151, 2-(1-(6-(methylamino)pyridin-3-yl)ethylamino)-4-(5-(trifluoromethyl)-1H-pyrrolo[2,3-b]pyridin-3-yl)pyrimidine-5-carbonitrile], the negative-log Ki (pKi) is above 8.52.
To `COC(=O)N1CCC(C(C)Nc2ncc(C#N)c(-c3c[nH]c4ncc(C(F)(F)F)cc34)n2)CC1` (stereo not drawn) [Compound I-152, methyl 4-(1-(5-cyano-4-(5-(trifluoromethyl)-1H-pyrrolo[2,3-b]pyridin-3-yl)pyrimidin-2-ylamino)ethyl)piperidine-1-carboxylate] belongs above 8.52; to `CCS(=O)(=O)N1CCC(C(C)Nc2ncc(C#N)c(-c3c[nH]c4ncc(C(F)(F)F)cc34)n2)CC1` (stereo not drawn) [Compound I-153, 2-(1-(1-(ethylsulfonyl)piperidin-4-yl)ethylamino)-4-(5-(trifluoromethyl)-1H-pyrrolo[2,3-b]pyridin-3-yl)pyrimidine-5-carbonitrile], above 8.52.
With `C[C@@H](Nc1ncc(C#N)c(-c2c[nH]c3ncc(C(F)(F)F)cc23)n1)c1ccc(OC2CCN(C)CC2)cc1` [Compound I-154, 2-((R)-1-(4-(1-methylpiperidin-4-yloxy)phenyl)ethylamino)-4-(5-(trifluoromethyl)-1H-pyrrolo[2,3-b]pyridin-3-yl)pyrimidine-5-carbonitrile] the figure was 7.40 to 8.52; with `CC(Nc1ncc(C#N)c(-c2c[nH]c3ncc(C(F)(F)F)cc23)n1)c1ccc(S(C)(=O)=O)cc1` (stereo not drawn) [Compound I-155, 2-(1-(4-(methylsulfonyl)phenyl)ethylamino)-4-(5-(trifluoromethyl)-1H-pyrrolo[2,3-b]pyridin-3-yl)pyrimidine-5-carbonitrile], above 8.52.
With `CC(Nc1ncc(C#N)c(-c2c[nH]c3ncc(C(F)(F)F)cc23)n1)C1CCN(C(=O)N(C)C)CC1` (stereo not drawn) [Compound I-157, 4-(1-(5-cyano-4-(5-(trifluoromethyl)-1H-pyrrolo[2,3-b]pyridin-3-yl)pyrimidin-2-ylamino)ethyl)-N,N-dimethylpiperidine-1-carboxamide] the figure was above 8.52.
On to `CC(Nc1ncc(C#N)c(-c2c[nH]c3ncc(C(F)(F)F)cc23)n1)C1CCN(S(=O)(=O)C2CC2)CC1` (stereo not drawn) [Compound I-158, 2-(1-(1-(cyclopropylsulfonyl)piperidin-4-yl)ethylamino)-4-(5-(trifluoromethyl)-1H-pyrrolo[2,3-b]pyridin-3-yl)pyrimidine-5-carbonitrile], for which the pKi is above 8.52.
